13 molecules from PubChem BioAssay AID220 (DTP/NCI, 2004) can be followed below.

For the assay, the system named is CD8F1 mice, subcutaneous mammary adenocarcinoma, T/C%. Kind of assay: NCI In Vivo Anticancer Drug Screen. Data for tumor model Mammary Adenocarcinoma CD8F1 (subcutaneous) in CD8F1. The note with it: higher = larger tumour. As for the experimental part:
The antitumor activity of compounds was measured in mice bearing transplantable tumors. Survival or tumor size were measured and the results are expressed as the measurement made in the treated group (T) divided by the measurement made in the vehicle treated control group (C). The tumor model used in this assay is Mammary Adenocarcinoma CD8F1 (subcutaneous) in CD8F1

Setting [1] is: endpoint: median tumor weight (est.), dose: 25.0 mg/kg/injection, schedule: Q07DX005 (ip), vehicle: Klucel (hydroxypropylcellulose) (HPC).
Setting [2] is: endpoint: median tumor weight (est.), dose: 200.0 mg/kg/injection, schedule: Q07DX005 (ip), vehicle: Klucel (hydroxypropylcellulose) (HPC).
Setting [3] is: endpoint: median tumor weight (est.), dose: 25.0 mg/kg/injection, schedule: Q07DX005 (ip), vehicle: saline with Tween-80.
Setting [4] is: endpoint: median tumor weight (est.), dose: 50.0 mg/kg/injection, schedule: Q07DX005 (ip), vehicle: saline with Tween-80.
[5] abbreviates: endpoint: median tumor weight (est.), dose: 100.0 mg/kg/injection, schedule: Q07DX005 (ip), vehicle: saline with Tween-80.

Several values for one entry are separate records, joined by “and”; a condition that tells them apart may be missing. Identical values can stand only once. Records with an inconclusive call do not appear.

Consider `CCN(CC)c1ccc2cc(-c3nc4ccccc4n3C)c(=O)oc2c1`, for which the T/C was 62 % of control and 84 % of control under setting [1]; 79 % of control (endpoint: median tumor weight (est.), dose: 50.0 mg/kg/injection, schedule: Q07DX005 (ip), vehicle: Klucel (hydroxypropylcellulose) (HPC)); 35 % of control (endpoint: median tumor weight (est.), dose: 100.0 mg/kg/injection, schedule: Q07DX005 (ip), vehicle: Klucel (hydroxypropylcellulose) (HPC)); 24 % of control under setting [2]; 92 % of control (endpoint: median tumor weight change, dose: 125.0 mg/kg/injection, schedule: Q01DX001 (ip), vehicle: Klucel (hydroxypropylcellulose) (HPC)); 80 % of control (endpoint: median tumor weight change, dose: 250.0 mg/kg/injection, schedule: Q01DX001 (ip), vehicle: Klucel (hydroxypropylcellulose) (HPC)). Where the note is “endpoint: median tumor weight change, dose: 500.0 mg/kg/injection, schedule: Q01DX001 (ip), vehicle: Klucel (hydroxypropylcellulose) (HPC)”, the T/C is 37 % of control.

Turning to `O=c1[nH]cnc2[nH]ncc12`, the T/C reads like this: (endpoint: median tumor weight change, dose: 125.0 mg/kg/injection, schedule: Q01DX001 (ip), vehicle: suspension in saline) 104 % of control; (endpoint: median tumor weight change, dose: 250.0 mg/kg/injection, schedule: Q01DX001 (ip), vehicle: suspension in saline) 71 % of control.

As for `NCCCNCCSP(=O)(O)O`, the T/C runs as follows: under setting [3], 39 % of control; under setting [4], 33 % of control; under setting [5], 50 % of control; (endpoint: median tumor weight (est.), dose: 200.0 mg/kg/injection, schedule: Q07DX005 (ip), vehicle: saline with Tween-80) 28 % of control; (endpoint: median tumor weight (est.), dose: 400.0 mg/kg/injection, schedule: Q07DX005 (ip), vehicle: saline with Tween-80) 42 % of control.

Regarding `O=C1C(O)=C(c2ccccc2)C(=O)C(O)=C1c1ccccc1`, the T/C (endpoint: median tumor weight change, dose: 31.0 mg/kg/injection, schedule: Q01DX001 (ip), vehicle: saline with Tween-80) was 105 % of control; the T/C (endpoint: median tumor weight change, dose: 62.0 mg/kg/injection, schedule: Q01DX001 (ip), vehicle: saline with Tween-80) was 58 % of control; the T/C (endpoint: median tumor weight change, dose: 125.0 mg/kg/injection, schedule: Q01DX001 (ip), vehicle: saline with Tween-80) was 104 % of control.

For `CN1CCN(CN2C(=O)C3C4C=CC(C3C2=O)C2C3C(=O)N(CN5CCN(C)CC5)C(=O)C3C42)CC1` (configuration not stated), the T/C (endpoint: median tumor weight change, dose: 21.6 mg/kg/injection, schedule: Q01DX005 (ip), vehicle: water) was 98 % of control; the T/C (endpoint: median tumor weight change, dose: 24.8 mg/kg/injection, schedule: Q01DX005 (ip), vehicle: water) was 84 % of control; the T/C (endpoint: median tumor weight change, dose: 36.0 mg/kg/injection, schedule: Q01DX005 (ip), vehicle: water) is 70 % of control; the T/C (endpoint: median tumor weight change, dose: 41.4 mg/kg/injection, schedule: Q01DX005 (ip), vehicle: water) is 25 % of control; the T/C (endpoint: median tumor weight change, dose: 60.0 mg/kg/injection, schedule: Q01DX005 (ip), vehicle: water) is 54 % of control; the T/C (endpoint: median tumor weight change, dose: 69.0 mg/kg/injection, schedule: Q01DX005 (ip), vehicle: water) was 23 % of control. Further, the T/C was 21 % of control (endpoint: median tumor weight change, dose: 100.0 mg/kg/injection, schedule: Q01DX005 (ip), vehicle: water); 33 % of control (endpoint: median tumor weight change, dose: 108.0 mg/kg/injection, schedule: Q01DX001 (ip), vehicle: water); 33 % of control (endpoint: median tumor weight change, dose: 123.9 mg/kg/injection, schedule: Q01DX001 (ip), vehicle: water).

Take `COC1=CC(=O)C(OC)=C(OC)C1=O`: the T/C was 63 % of control (endpoint: median tumor weight (est.), dose: 6.25 mg/kg/injection, schedule: Q07DX005 (ip), vehicle: saline with Tween-80); 106 % of control (endpoint: median tumor weight (est.), dose: 12.5 mg/kg/injection, schedule: Q07DX005 (ip), vehicle: saline with Tween-80); 90 % of control under setting [3]; 96 % of control under setting [4]; 74 % of control under setting [5].

Regarding `CCOC(=O)c1ccc(NC(=O)Nc2nncs2)cc1`, the T/C is 239 % of control (endpoint: median tumor weight (est.), dose: 12.5 mg/kg/injection, schedule: Q07DX005 (ip), vehicle: distilled water + Tween-80); 259 % of control (endpoint: median tumor weight (est.), dose: 25.0 mg/kg/injection, schedule: Q07DX005 (ip), vehicle: distilled water + Tween-80); 69 % of control (endpoint: median tumor weight (est.), dose: 50.0 mg/kg/injection, schedule: Q07DX005 (ip), vehicle: distilled water + Tween-80); 156 % of control (endpoint: median tumor weight (est.), dose: 400.0 mg/kg/injection, schedule: Q07DX005 (ip), vehicle: distilled water + Tween-80).

`O=C(O)CCCc1ccc(N(CCCl)CCCl)cc1`: the T/C reads like this: (endpoint: median tumor weight (est.), dose: 2.0 mg/kg/injection, schedule: Q07DX005 (ip), vehicle: saline) 234 % of control and 83 % of control; (endpoint: median tumor weight (est.), dose: 4.0 mg/kg/injection, schedule: Q07DX005 (ip), vehicle: saline with Tween-80) 77 % of control; (endpoint: median tumor weight (est.), dose: 7.5 mg/kg/injection, schedule: Q07DX005 (ip), vehicle: Klucel (hydroxypropylcellulose) (HPC)) 88 % of control; (endpoint: median tumor weight (est.), dose: 8.0 mg/kg/injection, schedule: Q07DX005 (ip), vehicle: saline with Tween-80) 46 % of control; (endpoint: median tumor weight (est.), dose: 15.0 mg/kg/injection, schedule: Q07DX005 (ip), vehicle: Klucel (hydroxypropylcellulose) (HPC)) 26 % of control; (endpoint: median tumor weight (est.), dose: 16.0 mg/kg/injection, schedule: Q07DX005 (ip), vehicle: saline with Tween-80) 43 % of control. Also, the T/C was 22 % of control (endpoint: median tumor weight (est.), dose: 30.0 mg/kg/injection, schedule: Q07DX005 (ip), vehicle: Klucel (hydroxypropylcellulose) (HPC)); 16 % of control (endpoint: median tumor weight (est.), dose: 32.0 mg/kg/injection, schedule: Q07DX005 (ip), vehicle: saline with Tween-80); 3 % of control and 14 % of control (endpoint: median tumor weight (est.), dose: 32.0 mg/kg/injection, schedule: Q07DX005 (ip), vehicle: saline); 57 % of control (endpoint: median tumor weight change, dose: 16.0 mg/kg/injection, schedule: Q01DX001 (ip), vehicle: saline with Tween-80); 62 % of control (endpoint: median tumor weight change, dose: 32.0 mg/kg/injection, schedule: Q01DX001 (ip), vehicle: saline with Tween-80); 38 % of control (endpoint: median tumor weight change, dose: 64.0 mg/kg/injection, schedule: Q01DX001 (ip), vehicle: saline with Tween-80).

With `CC(C)NCC(O)COc1cccc2ccccc12` (configuration not stated), the T/C by setting is: (endpoint: mean tumor weight, dose: 4.0 mg/kg/injection, schedule: Q07DX007 (ip), vehicle: Klucel (hydroxypropylcellulose) (HPC)) 61 % of control; (endpoint: mean tumor weight, dose: 8.0 mg/kg/injection, schedule: Q07DX007 (ip), vehicle: Klucel (hydroxypropylcellulose) (HPC)) 92 % of control; (endpoint: mean tumor weight, dose: 32.0 mg/kg/injection, schedule: Q07DX007 (ip), vehicle: Klucel (hydroxypropylcellulose) (HPC)) 88 % of control; (endpoint: mean tumor weight, dose: 64.0 mg/kg/injection, schedule: Q07DX007 (ip), vehicle: Klucel (hydroxypropylcellulose) (HPC)) 43 % of control.

Regarding `CS(=O)(=O)OCCCCOS(C)(=O)=O`, the T/C reads like this: (endpoint: median tumor weight (est.), dose: 12.5 mg/kg/injection, schedule: Q07DX005 (ip), vehicle: Klucel (hydroxypropylcellulose) (HPC)) 91 % of control and 95 % of control; under setting [1], 59 % of control and 70 % of control; under setting [2], 8 % of control.

Regarding `CCCCn1cnc2c(=S)nc[nH]c21`, the T/C reads like this: (endpoint: median tumor weight change, dose: 250.0 mg/kg/injection, schedule: Q01DX001 (ip), vehicle: saline with Tween-80) 60 % of control; (endpoint: median tumor weight change, dose: 500.0 mg/kg/injection, schedule: Q01DX001 (ip), vehicle: saline with Tween-80) 2 % of control; (endpoint: median tumor weight change, dose: 1000.0 mg/kg/injection, schedule: Q01DX001 (ip), vehicle: saline with Tween-80) 8 % of control.

Turning to `O=C1c2cccc(NCCCNCCO)c2C(=O)c2cccc(NCCCNCCO)c21`, the T/C by setting is: (endpoint: median tumor weight change, dose: 6.25 mg/kg/injection, schedule: Q01DX001 (ip), vehicle: acid diluted with saline) 36 % of control; (endpoint: median tumor weight change, dose: 12.5 mg/kg/injection, schedule: Q01DX001 (ip), vehicle: acid diluted with saline) 47 % of control; (endpoint: median tumor weight change, dose: 25.0 mg/kg/injection, schedule: Q01DX001 (ip), vehicle: acid diluted with saline) 29 % of control; (endpoint: median tumor weight change, dose: 50.0 mg/kg/injection, schedule: Q01DX001 (ip), vehicle: acid diluted with saline) 23 % of control; (endpoint: median tumor weight change, dose: 100.0 mg/kg/injection, schedule: Q01DX001 (ip), vehicle: acid diluted with saline) 54 % of control.

As to `CCS/C(SC)=C(/c1ccccc1)[P+](c1ccccc1)(c1ccccc1)c1ccccc1`, the T/C was 159 % of control (endpoint: median tumor weight change, dose: 0.5 mg/kg/injection, schedule: Q01DX001 (ip), vehicle: Klucel (hydroxypropylcellulose) (HPC)); 100 % of control (endpoint: median tumor weight change, dose: 1.0 mg/kg/injection, schedule: Q01DX001 (ip), vehicle: Klucel (hydroxypropylcellulose) (HPC)); 114 % of control (endpoint: median tumor weight change, dose: 2.0 mg/kg/injection, schedule: Q01DX001 (ip), vehicle: Klucel (hydroxypropylcellulose) (HPC)); 81 % of control (endpoint: median tumor weight change, dose: 4.0 mg/kg/injection, schedule: Q01DX001 (ip), vehicle: Klucel (hydroxypropylcellulose) (HPC)); 43 % of control (endpoint: median tumor weight change, dose: 8.0 mg/kg/injection, schedule: Q01DX001 (ip), vehicle: Klucel (hydroxypropylcellulose) (HPC)).
